Laboratory results reported in patent publication US11382956B2, “Amylin analogues” (Zealand Pharma A/S, priority 2016, dated 2022).
Numbered stars: 1 amine (or outer) side, 2 acyl side, 3 side chain; on linkers, the order of the positions; unused ones are H or OH. Bridge positions count the residues as written; N and C are the ends. Square brackets hold non-standard residues; d marks the D form. Peptide text beside a SMILES is read from it. * marks the point of attachment. C20 diacid = O=C(O)CCCCCCCCCCCCCCCCCCC(=O)*; γGlu = O=C(O)[C@H](CCC(=O)[*:2])N[*:1]; Hyp = O=C(O)[C@@H]1C[C@@H](O)CN1; NMeI = CC[C@H](C)[C@H](NC)C(=O)O; Aad = N[C@@H](CCCC(=O)O)C(=O)O; Sar = CNCC(=O)O

Assays:
[1] = molecular target: T1, recombinant human calcitonin receptor (hCT-R) (Homo sapiens, UniProt P30988); experiment: hCT-R cAMP assay (AlphaScreen) in 1321N1 cells; assay type: cell-based; conditions: cAMP formation, 45 min stimulation
T1 construct: host or cells: human astrocytoma cell line 1321N1
T1 sequence (P30988 25-474): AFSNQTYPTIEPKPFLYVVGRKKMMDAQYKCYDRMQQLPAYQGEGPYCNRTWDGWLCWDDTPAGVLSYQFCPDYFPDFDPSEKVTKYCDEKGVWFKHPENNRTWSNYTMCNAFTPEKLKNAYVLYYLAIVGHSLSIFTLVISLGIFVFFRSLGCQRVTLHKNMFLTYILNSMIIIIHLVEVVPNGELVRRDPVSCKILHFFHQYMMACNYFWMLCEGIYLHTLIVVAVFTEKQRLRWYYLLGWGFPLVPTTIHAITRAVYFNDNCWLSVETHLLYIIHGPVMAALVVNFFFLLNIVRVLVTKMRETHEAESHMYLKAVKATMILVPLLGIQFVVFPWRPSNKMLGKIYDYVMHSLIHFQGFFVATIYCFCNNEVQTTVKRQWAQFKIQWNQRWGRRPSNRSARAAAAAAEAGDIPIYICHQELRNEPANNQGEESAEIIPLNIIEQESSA
In short: (§1)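 EC50 values come from curve fits over at least 7 peptide concentrations, with cAMP read by AlphaScreen competition after 1 h in the dark. Cells were 1321N1 lines carrying human calcitonin receptor, with RAMP3 co-expressed for AMY3, treated 45 min at room temperature in the presence of IBMX.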

[2] = molecular target: T2, recombinant human amylin 3 receptor (hAMYR3) (Homo sapiens, UniProt O60896+P30988); experiment: hAMYR3 cAMP assay (AlphaScreen) in 1321N1 cells; assay type: cell-based; conditions: cAMP formation, 45 min stimulation
T2 construct: host or cells: human astrocytoma cell line 1321N1
T2 sequence (P30988 25-474): T1 sequence (P30988 25-474)
T2 sequence (O60896 24-148 partner): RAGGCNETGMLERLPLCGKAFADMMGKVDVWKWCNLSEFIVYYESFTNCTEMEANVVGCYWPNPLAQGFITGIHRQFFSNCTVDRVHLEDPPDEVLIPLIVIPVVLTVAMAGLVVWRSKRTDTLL
In short: as §1

[3] = Assessment of physical stability: fibril formation by Thioflavin T fluorescence; assay type: physicochemical; set-up: key: FND = fibrillation not detected; FD = fibrillation detected; conditions: 1 mg/mL peptide; for Fibrillation (in buffer) pH4 acetate: 50 mM acetate buffer pH 4.0, 96 hours at 40° C.; for Fibrillation (in buffer) pH7 histidine: 50 mM histidine buffer pH 7.0, 96 hours at 40° C.; for Fibrillation (in buffer) pH7 phosphate: 50 mM phosphate buffer pH 7.0, 96 hours at 40° C.
Procedure: Solutions containing (i) 1 mg/mL of test peptide, 40 μM ThT and 50 mM phosphate (Ph) buffer (pH 7.0), (ii) 1 mg/mL of test peptide, 40 μM ThT and 50 mM histidine (His) buffer (pH 7.0), and (iii) 1 mg/mL of test peptide, 40 μM ThT and 50 mM acetate (Ac) buffer (pH 4.0), were loaded in a 96-well black fluorescence plate (clear bottom) in triplicate. Data were collected at fixed intervals of 10 min, each preceded by 300 s of automixing (agitation), over a period of 96 hours at 40° C. Physical stability is determined by measuring the fluorescence intensity over time. A significant increase in intensity is rated as fibrillation detected (FD).

[4] = Assessment of chemical stability in 40 mM buffers at 40° C. (RP-HPLC); assay type: physicochemical; conditions: 1 mg/mL; for % degradation after 14 days at 40° C. pH4 acetate: acetate buffer pH 4, 14 days; for % degradation after 14 days at 40° C. pH6 phosphate: phosphate buffer pH 6, 14 days; for % degradation after 14 days at 40° C. pH7 phosphate: phosphate buffer pH 7, 14 days
Procedure: Samples of each test peptide were dissolved in acetate buffer pH 4 and phosphate buffer pH 6 and 7 (all buffer 40 mM). The final peptide concentration was 1 mg/mL. Samples were placed in glass vials and incubated at 40° C. The samples were analyzed by RP-HPLC on a C8 column with gradient elution using a trifluoroacetic acid/acetonitrile/water eluent system. The area-percentage (area-%) of the main peak was determined by UV spectroscopy at 220 nm at each sampling time point.
The % degradation was calculated by subtracting the […].
The results of the chemical stability assessment after 3 days of incubation time are summarized as % degradation in Table 1 (below).
The results of the chemical stability assessment after 14 days of incubation time are summarized as % degradation in Table 2 (below).

Row | EC50 [1] [nM] | EC50 [2] [nM] | Fibrillation (in buffer) pH4 acetate [3] | Fibrillation (in buffer) pH7 histidine [3] | Fibrillation (in buffer) pH7 phosphate [3] | % degradation after 72 h at 40° C. pH4 acetate ([4]; acetate buffer pH 4, 72 h) [%] | % degradation after 72 h at 40° C. pH6 phosphate ([4]; phosphate buffer pH 6, 72 h) [%] | % degradation after 72 h at 40° C. pH7 phosphate ([4]; phosphate buffer pH 7, 72 h) [%] | SMILES | % degradation after 14 days at 40° C. pH4 acetate [4] [%] | % degradation after 14 days at 40° C. pH6 phosphate [4] [%] | % degradation after 14 days at 40° C. pH7 phosphate [4] [%]
1 | 0.021 | 0.007 | FD | FD | FD | – | – | – | CC[C@H](C)[C@@H](C(=O)N[C@@H](CC(C)C)C(=O)N[C@@H](CO)C(=O)N[C@@H](CO)C(=O)N[C@H](C(=O)N[C@@H](CCC(=O)O)C(=O)N[C@H](C(=O)NCC(=O)N[C@@H](CO)C(=O)N[C@@H](CC(N)=O)C(=O)N[C@H](C(=O)N1C[C@H](O)C[C@H]1C(N)=O)[C@@H](C)O)C(C)C)[C@@H](C)O)N(C)C(=O)[C@H](C)NC(=O)CN(C)C(=O)[C@H](Cc1ccccc1)NC(=O)[C@H](CO)NC(=O)[C@H](CO)NC(=O)[C@H](CCCNC(=N)N)NC(=O)[C@H](CCC(N)=O)NC(=O)[C@H](CC(C)C)NC(=O)[C@H](Cc1ccccc1)NC(=O)[C@H](CC(N)=O)NC(=O)[C@H](C)NC(=O)[C@H](CC(C)C)NC(=O)[C@H](CCCNC(=N)N)NC(=O)[C@H](CCC(N)=O)NC(=O)[C@@H](NC(=O)[C@H](C)NC(=O)[C@@H]1CCCCNC(=O)C[C@H](NC(=O)[C@H](CCCCN)NC(=O)CC[C@H](NC(=O)CCCCCCCCCCCCCCCCCCC(=O)O)C(=O)O)C(=O)NCC(=O)N[C@@H]([C@@H](C)O)C(=O)N[C@@H](C)C(=O)N[C@@H]([C@@H](C)O)C(=O)N1)[C@@H](C)O [Compound 43, [19CD]-isoGlu-KD()GTATK()ATQRLANFLQRSSF-Gly(Me)-A-Ile(Me)-LSSTEVGSNT-Hyp-NH2] ({C20 diacid-γGlu}-KDGTATKATQRLANFLQRSSF[Sar]A[NMeI]LSSTEVGSNT[Hyp]-NH2; lactam 2-7) | – | – | –
2 | 0.006 | 0.005 | FD | FND | FND | 1.3 | <1 | 2.2 | CC[C@H](C)[C@@H](C(=O)N[C@@H](CC(C)C)C(=O)N[C@@H](CO)C(=O)N[C@@H](CO)C(=O)N[C@H](C(=O)N[C@@H](CCC(=O)O)C(=O)N[C@H](C(=O)NCC(=O)N[C@@H](CO)C(=O)N[C@@H](CC(N)=O)C(=O)N[C@H](C(=O)N1C[C@H](O)C[C@H]1C(N)=O)[C@@H](C)O)C(C)C)[C@@H](C)O)N(C)C(=O)[C@H](C)NC(=O)CN(C)C(=O)[C@H](Cc1ccccc1)NC(=O)CNC(=O)CNC(=O)[C@H](CCCNC(=N)N)NC(=O)[C@H](CCC(N)=O)NC(=O)[C@H](CC(C)C)NC(=O)[C@H](Cc1ccccc1)NC(=O)[C@H](CCCC(=O)O)NC(=O)[C@H](C)NC(=O)[C@H](CC(C)C)NC(=O)[C@H](CCCNC(=N)N)NC(=O)[C@H](CCC(=O)O)NC(=O)[C@@H](NC(=O)[C@H](C)NC(=O)[C@@H]1CCCCNC(=O)C[C@H](NC(=O)[C@H](CCCNC(=N)N)NC(=O)CC[C@H](NC(=O)CCCCCCCCCCCCCCCCCCC(=O)O)C(=O)O)C(=O)NCC(=O)N[C@@H]([C@@H](C)O)C(=O)N[C@@H](C)C(=O)N[C@@H]([C@@H](C)O)C(=O)N1)[C@@H](C)O [Compound 32, [19CD]-isoGlu-RD()GTATK()ATERLA-Aad-FLQRGGF-Gly(Me)-A-Ile(Me)-LSSTEVGSNT-Hyp-NH2] ({C20 diacid-γGlu}-RDGTATKATERLA[Aad]FLQRGGF[Sar]A[NMeI]LSSTEVGSNT[Hyp]-NH2; lactam 2-7) | <1 | <1 | <1
3 | 0.02 | 0.009 | FD | FND | FND | – | – | – | CC[C@H](C)[C@@H](C(=O)N[C@@H](CC(C)C)C(=O)N[C@@H](CO)C(=O)N[C@@H](CO)C(=O)N[C@H](C(=O)N[C@@H](CCC(=O)O)C(=O)N[C@H](C(=O)NCC(=O)N[C@@H](CO)C(=O)N[C@@H](CC(N)=O)C(=O)N[C@H](C(=O)N1C[C@H](O)C[C@H]1C(N)=O)[C@@H](C)O)[C@@H](C)O)[C@@H](C)O)N(C)C(=O)[C@H](C)NC(=O)CN(C)C(=O)[C@H](Cc1ccccc1)NC(=O)[C@H](CO)NC(=O)[C@H](CO)NC(=O)[C@H](CCCNC(=N)N)NC(=O)[C@H](CCC(N)=O)NC(=O)[C@H](CC(C)C)NC(=O)[C@H](Cc1ccccc1)NC(=O)[C@H](CC(N)=O)NC(=O)[C@H](C)NC(=O)[C@H](CC(C)C)NC(=O)[C@H](CCCNC(=N)N)NC(=O)[C@H](CCC(N)=O)NC(=O)[C@@H](NC(=O)[C@H](C)NC(=O)[C@@H]1CCCCNC(=O)C[C@H](NC(=O)[C@H](CCCCN)NC(=O)CC[C@H](NC(=O)CCCCCCCCCCCCCCCCCCC(=O)O)C(=O)O)C(=O)NCC(=O)N[C@@H]([C@@H](C)O)C(=O)N[C@@H](C)C(=O)N[C@@H]([C@@H](C)O)C(=O)N1)[C@@H](C)O [Compound 44, [19CD]-isoGlu-KD()GTATK()ATQRLANFLQRSSF-Gly(Me)-A-Ile(Me)-LSSTETGSNT-Hyp-NH2] ({C20 diacid-γGlu}-KDGTATKATQRLANFLQRSSF[Sar]A[NMeI]LSSTETGSNT[Hyp]-NH2; lactam 2-7) | – | – | –

Row | SMILES | EC50 [1] [nM] | EC50 [2] [nM] | Fibrillation (in buffer) pH4 acetate [3] | Fibrillation (in buffer) pH7 histidine [3] | Fibrillation (in buffer) pH7 phosphate [3] | % degradation after 72 h at 40° C. pH4 acetate ([4]; acetate buffer pH 4, 72 h) [%] | % degradation after 72 h at 40° C. pH6 phosphate ([4]; phosphate buffer pH 6, 72 h) [%] | % degradation after 72 h at 40° C. pH7 phosphate ([4]; phosphate buffer pH 7, 72 h) [%] | % degradation after 14 days at 40° C. pH4 acetate [4] [%] | % degradation after 14 days at 40° C. pH6 phosphate [4] [%] | % degradation after 14 days at 40° C. pH7 phosphate [4] [%]
4 | CC[C@H](C)[C@@H](C(=O)N[C@@H](CC(C)C)C(=O)N[C@@H](CO)C(=O)N[C@@H](CO)C(=O)N[C@H](C(=O)N[C@@H](CCC(=O)O)C(=O)N[C@H](C(=O)NCC(=O)N[C@@H](CO)C(=O)N[C@@H](CC(N)=O)C(=O)N[C@H](C(=O)N1C[C@H](O)C[C@H]1C(N)=O)[C@@H](C)O)C(C)C)[C@@H](C)O)N(C)C(=O)[C@H](C)NC(=O)CN(C)C(=O)[C@H](Cc1ccccc1)NC(=O)[C@H](CO)NC(=O)[C@H](CO)NC(=O)[C@H](CCCNC(=N)N)NC(=O)[C@H](CCC(N)=O)NC(=O)[C@H](CC(C)C)NC(=O)[C@H](Cc1ccccc1)NC(=O)[C@H](CC(=O)O)NC(=O)[C@H](C)NC(=O)[C@H](CC(C)C)NC(=O)[C@H](CCCNC(=N)N)NC(=O)[C@H](CCC(N)=O)NC(=O)[C@@H](NC(=O)[C@H](C)NC(=O)[C@@H]1CSSC[C@H](NC(=O)[C@H](CCCNC(=N)N)NC(=O)CC[C@H](NC(=O)CCCCCCCCCCCCCCCCCCC(=O)O)C(=O)O)C(=O)N[C@@H](CC(N)=O)C(=O)N[C@@H]([C@@H](C)O)C(=O)N[C@@H](C)C(=O)N[C@@H]([C@@H](C)O)C(=O)N1)[C@@H](C)O [Ref. 5, [19CD]-isoGlu-RC()NTATC()ATQRLADFLQRSSF-Sar-A-Ile(Me)-LSSTEVGSNT-Hyp-NH2, reference compound] ({C20 diacid-γGlu}-RCNTATCATQRLADFLQRSSF[Sar]A[NMeI]LSSTEVGSNT[Hyp]-NH2; disulfide 2-7) | 0.063 | 0.028 | FD | FND | FND | – | – | – | 3.0 | 5.1 | 12.7
